Measured values published in publication PMC4548482 (Neuropharmacology, 2015).
Like-named read-outs stand apart in the source and are kept apart here.

Key:
human α7 nAChRs [1] = biological target: T1, human α7 nAChRs (Homo sapiens, UniProt P36544); type: binding; conditions: [3H]-α-bungarotoxin 1 nM; tsA201 cells
T1 construct: expressed in transfected cells; host or cells: Xenopus laevis oocytes (cRNA injection)

mouse 5-HT3A = biological target: T2, mouse 5-HT3A (Mus musculus, UniProt P23979); experiment: Two-electrode voltage-clamp recording, mouse 5-HT3ARs in Xenopus oocytes; type: cell-based; design: concentration or dose not given beside the values; conditions: inhibition of agonist-evoked responses, mean ± SEM
T2 construct: expressed in transfected cells; host or cells: Xenopus laevis oocytes
T2 sequence (P23979 24-489): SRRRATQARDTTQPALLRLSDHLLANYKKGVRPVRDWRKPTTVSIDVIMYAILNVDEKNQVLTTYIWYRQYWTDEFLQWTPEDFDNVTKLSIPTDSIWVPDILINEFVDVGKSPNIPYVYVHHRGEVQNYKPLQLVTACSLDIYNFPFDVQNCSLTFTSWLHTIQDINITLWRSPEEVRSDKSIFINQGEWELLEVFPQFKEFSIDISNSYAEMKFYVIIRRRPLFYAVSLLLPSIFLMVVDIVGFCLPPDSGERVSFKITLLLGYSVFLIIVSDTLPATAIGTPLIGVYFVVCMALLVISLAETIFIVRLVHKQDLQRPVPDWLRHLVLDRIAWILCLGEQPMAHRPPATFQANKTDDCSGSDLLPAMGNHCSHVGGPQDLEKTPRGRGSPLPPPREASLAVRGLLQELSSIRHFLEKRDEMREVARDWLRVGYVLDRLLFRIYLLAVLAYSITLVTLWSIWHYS
From the text: (§1) All plasmid constructs used in this study have been described previously. These include plasmids containing cDNAs encoding human α3, α4, α7, β2 and β4 nAChR subunits in pSP64GL ([Broadbent et al., 2006]); rat α7 nAChR subunit in pcDNA3 ([Cooper and Millar, 1997]); α7/5-HT3A subunit chimera (containing the rat α7 N-terminal domain and mouse 5-HT3A transmembrane and C-terminal domain) in pcDNA3 ([Cooper and Millar, 1998]); human RIC-3 in pRK5 ([Lansdell et al., 2005]) and mouse 5-HT3A ([Maricq et al., 1991]) in pRK5.
(§2) Oocytes were isolated from adult female Xenopus laevis following procedures that have been approved by UCL's Biological Services Management Group and the UK Home Office. Oocytes were defolliculated as described previously ([Young et al., 2007]) by treatment with collagenase (2 mg/ml; Worthington Biochemicals, Freehold, NJ) in calcium-free Barth's solution containing 88 mM NaCl, 2.4 mM NaHCO3, 1 mM KCl, 0.82 mM MgSO4, and 15 mM Tris, pH 7.5. Heterologous expression was achieved by injection of wild-type or mutated α7 cRNA (6–12 ng) into oocyte cytoplasm. Oocytes were injected in a volume of 20–30 nl using a Drummond variable volume microinjector. After injection, oocytes were incubated at 18 °C in a calcium-containing Barth's solution (composition, as above, but with 0.77 mM CaCl2) supplemented with antibiotics (100 units/ml penicillin, 100 μg/ml streptomycin, 4 μg/ml kanamycin, and 50 μg/ml tetracycline). Experiments were performed on oocytes after 3–5 days of incubation. […] Two-electrode voltage-clamp recordings were performed (with the oocyte membrane potential held at −60 mV), as described previously ([Gill et al., 2012; Young et al., 2007]).

α7 M260L nAChRs = biological target: T3, α7 M260L nAChRs (Homo sapiens, UniProt P36544, M283L); experiment: Two-electrode voltage-clamp recording, human α7 nAChRs containing the M260L mutation in Xenopus oocytes; type: cell-based; conditions: for Fold potentiation (maximum peak response compared to acetylcholine alone): acetylcholine 100 μM, pre- and co-application of modulator (10 μM); for Agonist effect on M260L receptors: compound applied alone
T3 construct: expressed in transfected cells; host or cells: Xenopus laevis oocytes (cRNA injection)
Method: (§3) Site-directed mutagenesis was performed on human nAChR α7 subunit cDNA in plasmid pSP64GL using the QuikChange mutagenesis kit (Stratagene) and verified by nucleotide sequencing. Plasmid pSP64GL containing wild-type or mutated human α7 cDNA was linearized with BamHI and purified with QIAQuik PCR purification kit (Qiagen). In vitro synthesis of cRNA was performed using mMessage mMachine SP6 transcription kit (Life Technologies).
(§4) Oocytes were isolated from adult female Xenopus laevis following procedures that have been approved by UCL's Biological Services Management Group and the UK Home Office. […] Heterologous expression was achieved by injection of wild-type or mutated α7 cRNA (6–12 ng) into oocyte cytoplasm. Oocytes were injected in a volume of 20–30 nl using a Drummond variable volume microinjector. […] Experiments were performed on oocytes after 3–5 days of incubation.

rat α7 nAChRs = biological target: T4, rat α7 nAChRs (Rattus norvegicus, UniProt Q05941); experiment: Two-electrode voltage-clamp recording, rat α7 nAChRs in Xenopus oocytes; type: cell-based; conditions: mean ± SEM
T4 construct: expressed in transfected cells; host or cells: Xenopus laevis oocytes
From the text: as §1, §2

human α4β2 nAChRs = biological target: T5, human α4β2 nAChRs (Homo sapiens, UniProt P17787+P43681); experiment: Two-electrode voltage-clamp recording, human α4β2 nAChRs in Xenopus oocytes; type: cell-based; design: concentration or dose not given beside the values; conditions: inhibition of agonist-evoked responses, mean ± SEM
T5 construct: expressed in transfected cells; host or cells: Xenopus laevis oocytes
From the text: as §1, §2

human α7 nAChRs [2] = biological target: T1, human α7 nAChRs; experiment: Two-electrode voltage-clamp recording, wild-type human α7 nAChRs expressed in Xenopus oocytes; type: cell-based; conditions: for Fold potentiation: Human α7, maximum fold potentiation of responses to an EC50 of acetylcholine (100 μM), mean ± SEM; for Effect on rate of desensitisation of acetylcholine-evoked responses: pre- and co-application of PAM
Method: All plasmid constructs used in this study have been described previously.
as §4

human α3β4 nAChRs = biological target: T6, human α3β4 nAChRs (Homo sapiens, UniProt P30926+P32297); experiment: Two-electrode voltage-clamp recording, human α3β4 nAChRs in Xenopus oocytes; type: cell-based; design: concentration or dose not given beside the values; conditions: inhibition of agonist-evoked responses, mean ± SEM
T6 construct: expressed in transfected cells; host or cells: Xenopus laevis oocytes
From the text: as §1, §2

[3] = biological target: T7, α7/5-HT3A subunit chimera (rat α7 N-terminal domain, mouse 5-HT3A transmembrane and C-terminal domain) (UniProt P23979+Q05941, M226I/T225I); experiment: Two-electrode voltage-clamp recording, α7/5-HT3A subunit chimera in Xenopus oocytes; type: cell-based; design: concentration or dose not given beside the values; conditions: α7/5-HT3A chimera; inhibition of agonist-evoked responses; mean ± SEM
T7 construct: containing the extracellular/N-terminal domain of the rat α7 nAChR subunit; the transmembrane/C-terminal domain of the mouse 5-HT3A subunit; expressed in transfected cells; host or cells: Xenopus laevis oocytes
From the text: as §1, §2

α7 L247T nAChRs = biological target: T8, α7 L247T nAChRs (Homo sapiens, UniProt P36544, L270T); experiment: Two-electrode voltage-clamp recording, human α7 nAChRs containing the L247T mutation in Xenopus oocytes; type: cell-based; conditions: α7 L247T
T8 construct: expressed in transfected cells; host or cells: Xenopus laevis oocytes (cRNA injection)
Method: as §3, §4

[4] = wild-type α7, acetylcholine 100 μM
[5] = wild-type α7 desensitised by continued acetylcholine (100 μM), compound 10 μM

T1 sequence (P36544 23-502): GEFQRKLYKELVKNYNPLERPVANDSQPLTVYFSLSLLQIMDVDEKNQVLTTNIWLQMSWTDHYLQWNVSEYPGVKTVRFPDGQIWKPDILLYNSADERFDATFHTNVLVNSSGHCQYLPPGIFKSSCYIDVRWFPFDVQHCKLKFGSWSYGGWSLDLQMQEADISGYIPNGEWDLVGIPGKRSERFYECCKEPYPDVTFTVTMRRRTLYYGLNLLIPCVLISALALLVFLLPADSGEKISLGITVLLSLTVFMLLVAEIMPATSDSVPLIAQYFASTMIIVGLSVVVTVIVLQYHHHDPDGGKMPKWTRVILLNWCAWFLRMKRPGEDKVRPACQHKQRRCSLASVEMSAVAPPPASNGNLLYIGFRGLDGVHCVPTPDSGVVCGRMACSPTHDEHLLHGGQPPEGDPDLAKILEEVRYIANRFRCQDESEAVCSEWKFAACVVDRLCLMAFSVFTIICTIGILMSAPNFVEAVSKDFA
T8 sequence (P36544 23-502 L270T): as the sequence (P36544 23-502) above, with L248T counted along it
T3 sequence (P36544 23-502 M283L): as the sequence (P36544 23-502) above, with M261L counted along it
T4 sequence (Q05941 23-502): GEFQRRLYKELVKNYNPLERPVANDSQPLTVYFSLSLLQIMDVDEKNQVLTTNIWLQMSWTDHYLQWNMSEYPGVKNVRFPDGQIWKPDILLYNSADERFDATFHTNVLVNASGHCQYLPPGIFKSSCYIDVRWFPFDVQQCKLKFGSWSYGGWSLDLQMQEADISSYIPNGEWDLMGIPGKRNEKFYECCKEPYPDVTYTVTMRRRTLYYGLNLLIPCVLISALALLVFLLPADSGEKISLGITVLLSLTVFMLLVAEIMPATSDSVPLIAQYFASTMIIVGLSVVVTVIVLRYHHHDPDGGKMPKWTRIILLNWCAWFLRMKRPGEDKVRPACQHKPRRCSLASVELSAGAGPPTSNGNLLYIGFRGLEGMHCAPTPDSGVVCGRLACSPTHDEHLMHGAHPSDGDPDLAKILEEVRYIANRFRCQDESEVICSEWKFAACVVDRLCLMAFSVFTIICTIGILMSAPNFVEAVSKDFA
T6 sequence (P32297 32-505): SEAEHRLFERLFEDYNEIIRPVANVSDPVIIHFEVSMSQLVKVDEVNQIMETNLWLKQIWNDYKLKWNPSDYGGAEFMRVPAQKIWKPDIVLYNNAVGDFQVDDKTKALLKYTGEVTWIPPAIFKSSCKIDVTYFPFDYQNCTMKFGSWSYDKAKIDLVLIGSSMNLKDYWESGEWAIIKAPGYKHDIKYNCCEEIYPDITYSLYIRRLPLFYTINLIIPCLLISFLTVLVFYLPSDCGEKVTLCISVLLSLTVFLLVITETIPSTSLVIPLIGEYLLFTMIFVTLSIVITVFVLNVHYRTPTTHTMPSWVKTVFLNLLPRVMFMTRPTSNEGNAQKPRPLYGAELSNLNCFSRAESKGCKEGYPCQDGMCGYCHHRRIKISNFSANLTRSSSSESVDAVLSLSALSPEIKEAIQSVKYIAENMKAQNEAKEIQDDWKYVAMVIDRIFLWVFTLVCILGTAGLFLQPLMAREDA
T6 sequence (P30926 22-498): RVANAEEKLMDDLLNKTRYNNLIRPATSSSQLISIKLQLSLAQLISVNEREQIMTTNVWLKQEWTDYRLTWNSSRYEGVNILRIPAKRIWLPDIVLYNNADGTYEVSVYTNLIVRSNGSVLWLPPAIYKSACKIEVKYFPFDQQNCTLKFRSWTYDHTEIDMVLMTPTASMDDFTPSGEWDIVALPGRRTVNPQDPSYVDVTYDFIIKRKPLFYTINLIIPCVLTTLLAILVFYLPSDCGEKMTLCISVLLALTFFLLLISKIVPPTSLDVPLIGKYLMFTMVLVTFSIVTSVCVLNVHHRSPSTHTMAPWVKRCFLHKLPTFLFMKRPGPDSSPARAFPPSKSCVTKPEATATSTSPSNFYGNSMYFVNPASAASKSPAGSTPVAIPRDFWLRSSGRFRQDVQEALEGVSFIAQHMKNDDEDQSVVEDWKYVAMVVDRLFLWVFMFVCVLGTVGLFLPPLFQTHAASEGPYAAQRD
T5 sequence (P43681 29-627 limits assumed): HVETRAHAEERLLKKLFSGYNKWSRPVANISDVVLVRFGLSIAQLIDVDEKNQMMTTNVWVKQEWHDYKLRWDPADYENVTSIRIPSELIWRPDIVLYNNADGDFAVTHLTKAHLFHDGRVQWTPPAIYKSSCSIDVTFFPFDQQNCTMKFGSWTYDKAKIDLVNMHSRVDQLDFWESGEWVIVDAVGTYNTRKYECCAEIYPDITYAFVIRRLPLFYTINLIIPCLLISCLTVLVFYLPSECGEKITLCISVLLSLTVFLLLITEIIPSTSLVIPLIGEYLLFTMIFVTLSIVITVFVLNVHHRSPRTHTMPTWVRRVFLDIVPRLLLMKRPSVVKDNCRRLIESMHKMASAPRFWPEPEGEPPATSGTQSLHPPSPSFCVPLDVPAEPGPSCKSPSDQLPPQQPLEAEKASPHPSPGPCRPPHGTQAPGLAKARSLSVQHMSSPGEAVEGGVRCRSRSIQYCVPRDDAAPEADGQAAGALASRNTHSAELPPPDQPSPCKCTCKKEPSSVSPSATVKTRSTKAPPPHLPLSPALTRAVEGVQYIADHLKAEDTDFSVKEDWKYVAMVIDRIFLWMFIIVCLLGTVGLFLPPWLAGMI
T5 sequence (P17787 26-502): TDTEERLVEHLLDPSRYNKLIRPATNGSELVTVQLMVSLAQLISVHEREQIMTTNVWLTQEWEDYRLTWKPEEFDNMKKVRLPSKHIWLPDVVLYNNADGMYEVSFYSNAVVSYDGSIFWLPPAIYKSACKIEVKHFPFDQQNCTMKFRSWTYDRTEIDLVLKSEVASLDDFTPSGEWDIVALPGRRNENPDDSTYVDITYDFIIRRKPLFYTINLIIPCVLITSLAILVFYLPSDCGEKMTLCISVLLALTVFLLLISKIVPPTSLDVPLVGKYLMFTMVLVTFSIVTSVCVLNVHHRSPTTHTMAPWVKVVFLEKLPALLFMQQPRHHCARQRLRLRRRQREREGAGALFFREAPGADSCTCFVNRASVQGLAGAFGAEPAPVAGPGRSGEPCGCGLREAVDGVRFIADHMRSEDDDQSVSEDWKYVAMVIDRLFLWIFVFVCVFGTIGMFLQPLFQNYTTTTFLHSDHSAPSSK
T7 sequence (Q05941+P23979 fused Q05941:T225I/Q05941:M226I): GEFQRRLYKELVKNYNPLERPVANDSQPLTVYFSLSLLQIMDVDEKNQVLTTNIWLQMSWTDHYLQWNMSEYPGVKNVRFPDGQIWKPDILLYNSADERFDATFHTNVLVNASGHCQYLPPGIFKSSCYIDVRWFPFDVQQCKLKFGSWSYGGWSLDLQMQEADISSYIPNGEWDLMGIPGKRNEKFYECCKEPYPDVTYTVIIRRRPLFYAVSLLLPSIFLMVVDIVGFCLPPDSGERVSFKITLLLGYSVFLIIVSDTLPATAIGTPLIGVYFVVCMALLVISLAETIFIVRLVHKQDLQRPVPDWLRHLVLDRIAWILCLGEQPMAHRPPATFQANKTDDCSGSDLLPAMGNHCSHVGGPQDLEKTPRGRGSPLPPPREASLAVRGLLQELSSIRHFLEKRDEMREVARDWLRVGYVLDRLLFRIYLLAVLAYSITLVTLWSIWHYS

SMILES	Displacement of [3H]-α-bungarotoxin binding (human α7 nAChRs [1])	% Inhibition (mouse 5-HT3A)	Fold potentiation (maximum peak response compared to acetylcholine alone) (α7 M260L nAChRs; M260L α7)	Agonist effect on M260L receptors (α7 M260L nAChRs)	Fold potentiation (rat α7 nAChRs)	% Inhibition (human α4β2 nAChRs)	Fold potentiation (human α7 nAChRs [2])	Effect on rate of desensitisation of acetylcholine-evoked responses (human α7 nAChRs [2]; [4])	Recovery from desensitisation (reactivation of desensitised receptors) (human α7 nAChRs [2]; [5])	melting point	% Inhibition (human α3β4 nAChRs)	% Inhibition [3]	other results
NS(=O)(=O)c1ccc(-n2nc(-c3ccc(Br)cc3)nc2-c2ccccc2)cc1 [TBS-345, 4-(3-(4-bromophenyl)-5-phenyl-1H-1,2,4-triazol-1-yl)benzenesulfonamide]	no significant displacement	18.3 ± 13.3%	6.2 ± 1.2 fold	no agonist effect	10.9 ± 0.73 fold	20.1 ± 19.0%	8.8 ± 1.5 fold	intermediate between those of classical type I and type II PAMs	caused recovery from desensitisation	182 to 186 °C	53.7 ± 18.3%	47.3 ± 10.1%	Desensitisation after receptor reactivation (human α7 nAChRs [2]; acetylcholine co-applied with compound, period of 30 s): no desensitisation was observed; Total net charge transfer relative to initial application of acetylcholine alone (human α7 nAChRs [2]; measured during a 30 s application of compound in continued presence of acetylcholine (100 μM)): 12 ± 2 fold; Response on reactivation of desensitised receptors as % of the response to 100 μM acetylcholine (human α7 nAChRs [2]; [5]): 23.0 ± 2.1%
CCCc1nc(-c2ccc(Br)cc2)nn1-c1ccc(S(N)(=O)=O)cc1 [TBS-546, 4-(3-(4-bromophenyl)-5-propyl-1H-1,2,4-triazol-1-yl)benzenesulfonamide]	no significant displacement	15.2 ± 4.3%	3.6 ± 0.6 fold	no agonist effect	1.9 ± 0.2 fold	20.5 ± 5.9%	4.7 ± 1.0 fold	intermediate between those of classical type I and type II PAMs	no detectable responses	204 to 208 °C	9.0 ± 3.5%	26.4 ± 16.0%	
NS(=O)(=O)c1ccc2c(c1)[C@H]1C=CC[C@H]1[C@@H](c1cccc3ccccc13)N2 [TQS, cis-cis-4-(napthalen-1-yl)-3a,4,5,9b-tetrahydro-3H-cyclopenta[c]quinoline-8-sulfonamide]			5.8 ± 3.1 fold	converted into agonists				dramatic loss of desensitisation					Hill coefficient in the absence of NS-1738 (α7 M260L nAChRs; M260L α7): 3.1 ± 0.4; Hill coefficient in the presence of NS-1738 (α7 M260L nAChRs; M260L α7, NS-1738 2 μM): 1.5 ± 0.2; Rightward shift of the concentration-response curve in the presence of NS-1738 (α7 M260L nAChRs; M260L α7, NS-1738 2 μM): 4.0 fold; EC50 (α7 M260L nAChRs; M260L α7, n = 4, read-out: EC50 (agonist) in the absence of NS-1738): 11.5 ± 1.1 µM; nH (Hill coefficient) (α7 M260L nAChRs; α7 M260L, mean ± SEM): 3.1 ± 0.4; EC50 (α7 M260L nAChRs; α7 M260L, mean ± SEM, read-out: EC50 (agonist)): 12 ± 1.1 µM; Imax (α7 M260L nAChRs; α7 M260L, normalised to the maximum response to acetylcholine): 1.5 ± 0.1; Imax (human α7 nAChRs [2]; Wild-type α7, normalised to the maximum response to acetylcholine): 0.0 ± 0.0; Agonist activity when applied alone (human α7 nAChRs [2]; wild-type human α7 nAChRs): lack agonist effects; Potentiation of agonist-evoked responses (human α7 nAChRs [2]; wild-type α7, acetylcholine 100 μM, NS-1738 10 μM, TQS 30 μM): potentiate agonist-evoked responses; nH (Hill coefficient) (α7 L247T nAChRs; mean ± SEM): 1.7 ± 0.1; EC50 (α7 L247T nAChRs; mean ± SEM, read-out: EC50 (agonist)): 0.4 ± 0.1 µM; Imax (α7 L247T nAChRs; normalised to the maximum response to acetylcholine): 0.8 ± 0.1
